Measurements as given in publication PMC7033111, “Rational design of novel benzisoxazole derivatives with acetylcholinesterase inhibitory and serotoninergic 5-HT4 receptors activities for the treatment of Alzheimer’s disease” (Scientific Reports, 2020).
Several values for one entry are separate records, joined by “and”; a condition that tells them apart may be missing. Identical values can stand only once. Like-named read-outs stand apart in the source and are kept apart here.

Legend:
[1] = target: T1, hAChE (AChE from human erythrocytes) (Homo sapiens, UniProt P22303); assay: hAChE inhibition, spectrometric Ellman method; type: biochemical; settings: for inhibition at 1 µM: 10^−6 M compound; for IC50: Ellman method, n = 2
T1 construct: AChE from human erythrocytes; purchased Sigma Aldrich; host or cells: human erythrocytes (tissue-derived enzyme)
Protocol: Inhibitory capacity of compounds on AChE biological activity was evaluated through the use of the spectrometric method of Ellman[39]. Acetylthiocholine and 5,5-dithiobis-(2-nitrobenzoic) acid (DTNB) were purchased from Sigma Aldrich. AChE from human erythrocytes (buffered aqueous solution, ≥500 units/mg protein (BCA), Sigma Aldrich) was diluted in 20 mM HEPES buffer pH 8, 0.1% Triton X-100 such as to have enzyme solution with 0.25 unit/mL enzyme activity. In the procedure, 100 μL of 0.3 mM DTNB dissolved in phosphate buffer pH 7.4 were added into the 96 wells plate followed by 50 μL of test compound solution and 50 μL of enzyme ([…]). After 5 min of preincubation at 25 °C, the reaction was then initiated by the injection of 50 μL of 10 mM acetylthiocholine iodide solution. The hydrolysis of acetylthiocholine was monitored by the formation of yellow 5-thio-2-nitrobenzoate anion as the result of the reaction of DTNB with thiocholine, released by the enzymatic hydrolysis of acetylthiocholine, at a wavelength of 412 nm using a 96-well microplate plate reader (TECAN Infinite M200, Lyon, France). Test compounds were dissolved in analytical grade DMSO. Donepezil was used as a reference standard. The rate of absorbance increase at 412 nm was followed every minute for 10 min. Assays were performed with a blank containing all components except acetylthiocholine, in order to account for non-enzymatic reaction. The reaction slopes were compared and the percent inhibition due to the presence of test compounds was calculated by the following expression: 100 − (vi/v0 × 100) where vi is the rate calculated in the presence of inhibitor and v0 is the enzyme activity.
For the compounds with significant inhibition (≥50%), IC50 values were determined graphically by plotting the % inhibition versus the logarithm of six inhibitor concentrations in the assay solution using the Origin software.

[2] = target: T2, human 5-HT4R (5-HT4(b) receptor membranes) (Homo sapiens, UniProt Q13639); assay: h5-HT4R competition binding with [3H]-GR113808; settings: for inhibition: 0.2 nM [3H]-GR113808
T2 construct: purchased Millipore HTS110M
Protocol: The competition studies used membrane preparations made from proprietary stable recombinant cell lines expressing the 5-HT4(b) receptor to ensure high-level of GPCR surface expression (HTS110M, Millipore). Membranes (2.5 µg protein) were incubated in duplicate at 25 °C for 60 min in the absence or the presence of 10^–6 or 10^–8M of each drug and 0.2 nM [^3H]-GR 113808 (VT 240, ViTrax) in 25 mM Tris buffer (pH 7.4, 25 °C). At the end of the incubation, homogenates were filtered through Whatman GF/C filters (Alpha Biotech) pre-soaked with 0.5% polyethylenimine using a Brandel cell harvester. Filters were subsequently washed three times with 4 mL of ice-cold 25 mM Tris buffer (pH 7.4, 4 °C). Non-specific binding was evaluated in parallel in the presence of 30 μM serotonin.
For some of these compounds, affinity constants were calculated from five-point inhibition curves using the EBDA-Ligand software and expressed as Ki ± SD[41].

[3] = target: T3, HA-tagged human 5-HT4 receptor (Homo sapiens, UniProt Q13639); assay: cAMP production, agonist mode, transfected COS-7 cells; type: cell-based; settings: for Top AMPc / EC50 / Log(EC50): agonist mode; for EC50: unit not given; for Log(EC50): given as Log(EC50)
T3 construct: HA; expressed in transfected cells; host or cells: COS-7 cells (ATCC CRL-1651), transient transfection
Description: (§1) Figure 5 Determination of the 5-HT4 pharmacological profiles for compounds 16, 32a and 33 by quantification of cAMP production. (A) Assay to determine the agonism activity (with serotonin and the partial agonist RS-67333 as references). (B) Assay to determine the antagonism activity (with the antagonist GR113808 as reference). Data presented are the mean of three independent experiments performed in duplicate.
(§2) COS-7 cells were purchased from ATCC (ATCC CRL-1651; LGC […], Molsheim, France). T were grown in Dulbecco’s modified Eagle medium (DMEM) supplemented with 10% dialyzed fetal calf serum (dFCS) and antibiotics. Cells were transiently transfected with plasmid encoding HA-tagged human 5-HT4 receptor, then seeded in 96-well plates (35,000 cells/well). 24 hrs after transfection, cells were washed once with 200 µl of HBS (20 mM HEPES; 150 mM NaCl; 4.2 mM KCl; 0.9 mM CaCl2; 0.5 mM MgCl2; 0.1% glucose; 0.1% BSA) and, after HBS removal, exposed to the indicated concentrations of 5-HT4R ligands in the presence of 0.1 mM of the phosphodiesterase inhibitor RO-20-1724, at 37 °C in 100 µl of HBS. After 10 min, cells were then lysed by addition of the same volume of Triton-X100 (0.1%) during 30 min at 37 °C. The competition assay in antagonist mode was performed as follows: after one wash in 200 µl of HBS, cells were exposed to 5-HT4R ligands at twice the indicated concentration, at 37 °C in 50 µl of HBS. After 7 min, serotonin (final concentration of 5.10^−7M) was added in 50 µl of HBS in the presence of the phosphodiesterase inhibitor RO-20-1724 (final concentration of 0.1 mM). After 10 min, cells were then lysed by addition of the same volume of Triton-X100 (0.1%) during 30 min at 37 °C. Quantification of cAMP production was performed by HTRF by using the cAMP Dynamic kit (Cisbio Bioassays) according to the manufacturer’s instructions

[4] = target: T3, HA-tagged human 5-HT4 receptor; assay: cAMP production, competition assay in antagonist mode vs serotonin, transfected COS-7 cells; type: cell-based
Description: as §1, §2

[5] = 10^−6 M compound, read-out: h5-HT4R % inhibition at 10^−6 M (converted)
[6] = 10^−8 M compound, read-out: h5-HT4R % inhibition at 10^−8 M (converted)
[7] = individual experiments HP5, HP6, HP7

T2 sequence (Q13639 whole entry): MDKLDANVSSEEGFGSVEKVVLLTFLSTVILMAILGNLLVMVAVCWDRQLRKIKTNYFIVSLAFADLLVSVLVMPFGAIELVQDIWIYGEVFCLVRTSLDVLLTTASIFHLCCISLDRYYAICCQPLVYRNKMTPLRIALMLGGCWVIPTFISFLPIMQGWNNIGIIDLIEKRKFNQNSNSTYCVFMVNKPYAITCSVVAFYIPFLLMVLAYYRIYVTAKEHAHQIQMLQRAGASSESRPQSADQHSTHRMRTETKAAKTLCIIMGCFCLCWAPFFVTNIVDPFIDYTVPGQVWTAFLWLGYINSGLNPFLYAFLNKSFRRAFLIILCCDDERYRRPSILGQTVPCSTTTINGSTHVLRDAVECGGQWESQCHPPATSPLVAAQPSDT
T3 sequence (Q13639 whole entry): as above
T1 sequence (P22303 other isoform, or with tags, fused parts or gaps): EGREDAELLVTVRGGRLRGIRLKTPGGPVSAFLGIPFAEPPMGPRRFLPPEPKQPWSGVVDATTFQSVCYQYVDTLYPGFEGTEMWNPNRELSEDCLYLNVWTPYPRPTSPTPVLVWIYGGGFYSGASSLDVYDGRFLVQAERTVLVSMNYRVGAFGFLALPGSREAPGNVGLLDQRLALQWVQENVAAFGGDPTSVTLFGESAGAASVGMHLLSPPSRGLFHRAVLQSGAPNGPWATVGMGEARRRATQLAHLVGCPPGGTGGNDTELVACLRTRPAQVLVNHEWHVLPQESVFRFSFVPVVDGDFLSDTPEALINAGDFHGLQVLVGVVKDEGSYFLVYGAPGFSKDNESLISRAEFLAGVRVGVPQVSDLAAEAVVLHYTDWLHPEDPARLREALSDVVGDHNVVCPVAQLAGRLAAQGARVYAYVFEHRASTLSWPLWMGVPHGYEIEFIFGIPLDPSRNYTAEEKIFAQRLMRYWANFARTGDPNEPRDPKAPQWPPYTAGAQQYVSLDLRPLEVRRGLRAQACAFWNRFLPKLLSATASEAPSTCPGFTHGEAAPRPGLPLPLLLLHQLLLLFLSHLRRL

COc1cccc2onc(OCC3CCN(Cc4ccccc4)CC3)c12 [Compound 15] showed an inhibition at 1 µM [1] of 82%, an IC50 [1] of 0.939 ± 0.04 µM and a Ki [2] of 0.003 ± 0.0004 µM. For the same molecule, the inhibition [2, 5] was 100% and the inhibition [2, 6] was 94%.
Molecule CC(C)CN1CCC(COc2noc3ccccc23)CC1 [Compound 13] has an inhibition at 1 µM [1] of 8%, a Ki [2] of 0.0208 ± 0.0125 µM and an inhibition [2, 5] of 100%. The inhibition [2, 6] was 59%.
COc1cccc2onc(OCC3CCN(CC4CCCCC4)CC3)c12 [Compound 14] gave an inhibition at 1 µM [1] of 82%, an IC50 [1] of 0.441 ± 0.063 µM and a Ki [2] of 0.0027 ± 0.0004 µM. It also gave an inhibition [2, 5] of 100% and an inhibition [2, 6] of 99%.
Work on c1ccc(CN2CCC(CCc3noc4ccccc34)CC2)cc1 [Compound 22] yielded a Ki [2] of 0.263 ± 0.011 µM, an inhibition [2, 5] of 78% and an inhibition [2, 6] of 8%.
In the case of COc1cccc2onc(OCC3CCN(CC(C)C)CC3)c12 [Compound 16], the “Top AMPc” value ([3]; Moy.) is reported as 4%, the EC50 ([3]; Moy. (mean of HP5-HP7)) is reported as “ns” and the “Log(EC50)” value ([3]; Moy., negative) is reported as “ns”. For the same molecule, the “Top AMPc” value [3, 7] was 5.63% and 0.00% and 6.91%, the “Log(EC50)” value [3, 7] was “ns” and the EC50 [3, 7] was “ns”. For the same molecule, the “5-HT4 pharmacological profile (agonism assay)” value ([3]; cAMP production, COS-7 cells) was “not agonist”, the inhibition at 1 µM [1] was 23% and the “inhibition of the enzyme (AChE), in words” value ([1]; statement in discussion) was “did not show any inhibition”. For the same molecule, the Ki [2] was 0.0041 ± 0.0004 µM, the inhibition [2, 5] was 100% and the inhibition [2, 6] was 100%. For the same molecule, the IC50 ([4]; IC50 (5-HT4R antagonist, cAMP production), COS-7 cells, serotonin 5.10^−7 M, mean of three experiments) was 0.0056 ± 0.0022 µM, the IC50 ([4]; IC50, antagonist mode, individual experiments HP8, HP10, HP11, unit inferred) was 0.00507 µM and 0.00201 µM and 0.00978 µM and the IC50 ([4]; Log(IC50), antagonist mode, Moy., printed as Log(IC50), negative) was 0.00501 µM. The “Bott. AMPc” value ([4]; antagonist mode, Moy.) was 31%, the “Bott. AMPc” value ([4]; antagonist mode, individual experiments HP8, HP10, HP11) was 39.69% and 29.62% and 24.98% and the “5-HT4 pharmacological profile (antagonism assay)” value ([4]; cAMP production, COS-7 cells) was “highly potent antagonist”.
c1ccc(CN2CCC(COc3noc4ccccc34)CC2)cc1 [Compound 12] was tested, and the Ki [2] was 0.0424 ± 0.0122 µM, the inhibition [2, 5] was 99% and the inhibition [2, 6] was 29%.
c1cc(OC2CCCC2)c2c(CCC3CCN(CC4CCCCC4)CC3)noc2c1 [Compound 32d] gave an inhibition at 1 µM [1] of 52%, an IC50 [1] of 1 ± 0.084 µM and a Ki [2] of 0.616 ± 0.067 µM. It also gave an inhibition [2, 5] of 100% and an inhibition [2, 6] of 0%.
Molecule c1ccc2c(CCC3CCN(CC4CCCCC4)CC3)noc2c1 [Compound 21] has an inhibition at 1 µM [1] of 84%, an IC50 [1] of 0.24 ± 0.059 µM and a Ki [2] of 0.139 ± 0.009 µM. The inhibition [2, 5] was 89% and the inhibition [2, 6] was 4%.
